From patent publication US10323028B2, “1,3,4-thiadiazole compounds and their use in treating cancer” (AstraZeneca AB, priority 2015, dated 2019)
Read-outs that look alike come from different tables or passages of the source.

Key:
GLS1 = GLS1 (Homo sapiens (Human), UniProt O94925); test: GLS Enzyme Potency Assay (Glutamate Oxidase/AmplexRed coupled assay); format: biochemical; conditions: 6His tagged GLS protein (amino acids 63-669), recombinant; read-out: Assay a) enz IC50
Excerpt: (§1) The following assays were used to measure the effects of the compounds described herein: a) GLS Enzyme Potency Assay; b) GLS Cell Potency Assay; c) GLS Cell Proliferation Assay. During the description of the assays, generally: • i. The following abbreviations have been used: CO2=Carbon dioxide; DMEM=Dulbecco's Modified Eagle Medium; DMSO=Dimethyl sulphoxide; EDTA=Ethylenediaminetetraacetic acid; EGTA=Ethylene glycol tetraacetic acid; FCS=Foetal calf serum; h=Hour(s); NBS=Non-binding surface; SDS=Sodium dodecyl sulphate; TRIS=Tris(Hydroxymethyl)aminomethane. • ii. IC50 values were calculated using a smart fitting model in Genedata.
Assay a): GLS Enzyme Potency Assay
A Glutamate Oxidase/AmplexRed coupled assay was used to measure the ability of compounds to bind to and inhibit the activity of GLS1 in vitro. […] GLS1 was diluted to 2× working concentration and incubated at room temperature to allow the tetrameric/dimeric forms to reach steady state. Assay measurements were performed in buffer comprising 50 mM TRIS pH 7.8, 100 mM NaPO4, pH 7.8, 0.001% v/v Tween20. Purified recombinant GLS1 protein was diluted in assay buffer to 12 nM and pre-incubated at room temperature for 30 minutes. […] DMSO concentration was maintained at 2% by back filling with DMSO solution. 3 μL of diluted GLS1 protein (12 nM) was then dispensed into each well using a BioRaptr automated dispenser (Beckman-Coulter) and incubated for 15 minutes at room temperature. 3 μL of 100 mM glutamine diluted in assay buffer was then added and the reaction incubated at room temperature for 60 minutes. […] An artefact version of the assay where the 6His tagged GLS protein and glutamine were replaced with assay buffer was also used to rule out non specific effects on the assay components.

[1] = biological target: cellular GLS activity in PC3 cells (Homo sapiens (Human), UniProt O94925); test: GLS Cell Potency Assay (PC3 coupled assay measuring cellular glutamate depletion); format: cell-based; conditions: PC3 cells, 6 h incubation, glutamate depletion; read-out: Assay b) GLS cell MOA Mean IC50
Excerpt: as §1
Assay b): GLS Cell Potency Assay
Compounds were assessed for their potential to inhibit cellular GLS activity by use of a PC3 coupled assay measuring cellular glutamate depletion. […] DMSO concentration was maintained at 0.3% by back filling with DMSO solution. PC3 cells were grown in phenol free DMEM, 10% dialyzed FCS, 2 mM glutamine and following dispersal by trypsinisation were plated at 5.6×10^3 cells per well in 40 μl of growth medium directly into the 384 well assay plates containing dispensed compound. After incubation for 6 h at 37° C., 5% CO2 growth media was aspirated and cells lysed in 15 μl of buffer containing 10 mM TRIS pH7.4, 100 mM NaCl, 1 mM EDTA, 1 mM EGTA, 1 mM NaF, 20 mM Na4P2O7, 2 mM Na3VO4, 1% Triton X-100, 10% glycerol, 0.1% SDS and 0.5% deoxycholate.

NCI-H1703 cells = test: GLS Cell Proliferation Assay (NCI-H1703 cell proliferation); format: cell-based
Excerpt: as §1
Assay c): GLS Cell Proliferation Assay
The ability of compounds to inhibit cell growth was measured using a 384 well plate NCI-H1703 cell proliferation assay. NCI-H1703 cells were grown in phenol red free RPMI1640, 10% FCS and 2 mM glutamine and seeded at a density of 750 cells per well in 40 μl of growth medium into clear-bottom 384 well assay plates (Corning product code 3712) and incubated for 24 h at 37° C., 5% CO2. […] DMSO concentration was maintained at 0.3% by back filling with DMSO solution. Plates were incubated for 5 days at 37° C., 5% CO2, Sytox Green and Saponin added to final concentration of 2 μM and 0.25% respectively and incubated for 6 h prior to analysis. […] IC50 values were calculated by curve fitting to max inhibition of day zero growth using GeneData software analysis.

[2] = Homo sapiens, NCI-H1703, 120 h, NCI-H1703 cells, 5 days; read-out: Assay c) Prolif Mean IC50
[3] = NCI-H1703 cells, 5 days; read-out: Assay c) Prolif Mean IC50

Chain of GLS1 (O94925 63-669): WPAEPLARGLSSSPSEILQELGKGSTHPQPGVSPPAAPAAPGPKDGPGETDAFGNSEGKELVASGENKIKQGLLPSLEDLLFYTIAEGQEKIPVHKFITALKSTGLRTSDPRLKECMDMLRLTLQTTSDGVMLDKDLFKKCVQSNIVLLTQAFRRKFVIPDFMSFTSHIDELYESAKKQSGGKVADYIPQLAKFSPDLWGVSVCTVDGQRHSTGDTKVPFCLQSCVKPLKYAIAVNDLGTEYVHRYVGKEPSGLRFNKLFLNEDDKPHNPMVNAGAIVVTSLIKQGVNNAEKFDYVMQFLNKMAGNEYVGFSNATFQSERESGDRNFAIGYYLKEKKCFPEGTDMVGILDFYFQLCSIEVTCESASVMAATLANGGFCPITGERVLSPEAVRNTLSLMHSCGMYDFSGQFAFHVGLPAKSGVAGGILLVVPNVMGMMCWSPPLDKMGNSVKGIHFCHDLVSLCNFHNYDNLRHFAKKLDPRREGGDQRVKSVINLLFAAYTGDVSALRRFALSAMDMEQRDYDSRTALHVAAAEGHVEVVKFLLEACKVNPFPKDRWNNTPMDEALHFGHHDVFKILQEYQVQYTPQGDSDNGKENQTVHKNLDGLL
Chain of cellular GLS activity in PC3 cells (O94925 73-669): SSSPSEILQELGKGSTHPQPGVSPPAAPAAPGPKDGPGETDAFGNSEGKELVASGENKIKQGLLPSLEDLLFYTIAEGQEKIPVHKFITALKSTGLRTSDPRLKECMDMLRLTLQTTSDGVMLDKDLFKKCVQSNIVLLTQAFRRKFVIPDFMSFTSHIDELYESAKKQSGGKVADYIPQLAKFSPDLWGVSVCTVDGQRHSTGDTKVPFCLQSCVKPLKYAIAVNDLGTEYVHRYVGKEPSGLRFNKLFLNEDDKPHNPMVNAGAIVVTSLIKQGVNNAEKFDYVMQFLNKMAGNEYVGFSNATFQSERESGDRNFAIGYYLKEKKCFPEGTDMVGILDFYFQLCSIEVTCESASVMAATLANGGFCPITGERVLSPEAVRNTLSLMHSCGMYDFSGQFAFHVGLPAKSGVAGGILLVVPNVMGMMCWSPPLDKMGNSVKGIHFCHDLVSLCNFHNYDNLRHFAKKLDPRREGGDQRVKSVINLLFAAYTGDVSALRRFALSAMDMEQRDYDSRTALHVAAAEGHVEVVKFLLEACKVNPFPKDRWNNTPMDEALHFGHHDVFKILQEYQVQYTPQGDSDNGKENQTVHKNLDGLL

SMILES	IC50 (GLS1)	IC50 [1]	IC50 (NCI-H1703 cells; [2])	IC50 (NCI-H1703 cells; [3])
COc1cc(OC)cc([C@H](OC)C(=O)Nc2nnc(N[C@@H]3CCN(c4cccnn4)C3)s2)c1 [Example 21(a), (2S)-2-(3,5-Dimethoxyphenyl)-2-methoxy-N-[5-[[(3R)-1-pyridazin-3-ylpyrrolidin-3-yl]amino]-1,3,4-thiadiazol-2-yl]acetamide]	20 nM	0.292 nM	2.24 nM	–
COc1cc(OC)cc([C@@H](OC)C(=O)Nc2nnc(N[C@@H]3CCN(c4cccnn4)C3)s2)c1 [Example 21(b), (2R)-2-(3,5-Dimethoxyphenyl)-2-methoxy-N-[5-[[(3R)-1-pyridazin-3-ylpyrrolidin-3-yl]amino]-1,3,4-thiadiazol-2-yl]acetamide]	48.2 nM	8.85 nM	59.1 nM	–
COc1cc(OC)cc(C(OC)C(=O)Nc2nnc(N[C@@H]3CCN(c4cccnn4)C3)s2)c1 (stereo partly drawn) [Example 23, 2-(3,5-dimethoxyphenyl)-2-methoxy-N-[5-[[(3R)-1-pyridazin-3-ylpyrrolidin-3-yl]amino]-1,3,4-thiadiazol-2-yl]acetamide]	48.2 nM	8.85 nM	59.1 nM	–
COc1cc(OC)cc(C(OC)C(=O)Nc2nnc(N[C@@H]3CCN(c4ccc(F)nn4)C3)s2)c1 (stereo partly drawn) [Example 26, 2-(3,5-dimethoxyphenyl)-N-[5-[[(3R)-1-(6-fluoropyridazin-3-yl)pyrrolidin-3-yl]amino]-1,3,4-thiadiazol-2-yl]-2-methoxy-acetamide]	23.5 nM	0.334 nM	4.2 nM	–
COC(C(=O)Nc1nnc(N[C@@H]2CCN(c3cccnn3)C2)s1)c1ccc(F)c(N2CC(F)(F)C2)c1 (stereo partly drawn) [Example 37, 2-[3-(3,3-difluoroazetidin-1-yl)-4-fluoro-phenyl]-2-methoxy-N-[5-[[(3R)-1-pyridazin-3-ylpyrrolidin-3-yl]amino]-1,3,4-thiadiazol-2-yl]acetamide]	147 nM	0.556 nM	–	21.1 nM
COC(C(=O)Nc1nnc(N[C@@H]2CCN(c3ccc(C)nn3)C2)s1)c1cccc(N2CC(F)(F)C2)c1 (stereo partly drawn) [Example 39, 2-[3-(3,3-difluoroazetidin-1-yl)phenyl]-2-methoxy-N-[5-[[(3R)-1-(6-methylpyridazin-3-yl)pyrrolidin-3-yl]amino]-1,3,4-thiadiazol-2-yl]acetamide]	130 nM	0.405 nM	–	5.94 nM
